The record followed here is ChEMBL document CHEMBL4414569, “Myxochelin- and Pseudochelin-Derived Lipoxygenase Inhibitors from a Genetically Engineered Myxococcus xanthus Strain” (J Nat Prod, 2019).

Calls of active or inactive are those of the source. The calls are words filed in the database; no cut-off is given here.

One experiment concerns the target T1, Polyunsaturated fatty acid 5-lipoxygenase (Homo sapiens, UniProt P09917).
T1 sequence (P09917 whole entry): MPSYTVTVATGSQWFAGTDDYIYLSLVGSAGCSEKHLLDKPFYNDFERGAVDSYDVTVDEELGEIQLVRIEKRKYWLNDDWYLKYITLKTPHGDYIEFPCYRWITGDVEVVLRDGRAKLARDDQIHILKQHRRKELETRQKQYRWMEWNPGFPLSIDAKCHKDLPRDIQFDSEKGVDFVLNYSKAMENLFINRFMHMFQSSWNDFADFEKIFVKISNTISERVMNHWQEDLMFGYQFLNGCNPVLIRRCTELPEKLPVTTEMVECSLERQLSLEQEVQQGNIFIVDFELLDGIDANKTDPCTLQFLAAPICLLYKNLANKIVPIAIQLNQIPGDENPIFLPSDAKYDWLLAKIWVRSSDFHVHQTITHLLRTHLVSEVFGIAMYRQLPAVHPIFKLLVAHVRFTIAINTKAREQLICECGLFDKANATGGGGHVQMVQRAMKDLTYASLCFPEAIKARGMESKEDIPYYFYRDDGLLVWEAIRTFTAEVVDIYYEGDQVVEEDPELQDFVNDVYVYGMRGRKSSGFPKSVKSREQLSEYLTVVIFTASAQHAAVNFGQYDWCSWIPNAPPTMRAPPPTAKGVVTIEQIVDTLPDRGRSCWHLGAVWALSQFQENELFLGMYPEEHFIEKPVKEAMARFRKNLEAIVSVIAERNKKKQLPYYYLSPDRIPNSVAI
Nature of the experiment: Inhibition of recombinant human 5-lipoxygenase using arachidonic acid as substrate preincubated for 10 mins followed by susbtrate addition and measured after 10 mins by reverse phase HPLC method.
Turning to `O=C(NCCCC[C@H]1CN=C(c2ccccc2O)N1)c1cccc(O)c1O`, the IC50 came out at 1.5 µM.

`NC[C@H](CCCCNC(=O)c1cccc(O)c1O)NC(=O)c1ccccc1O`: the IC50 was determined as 5.6 µM.

As for `NC[C@H](CCCCNC(=O)c1ccccc1O)NC(=O)c1cccc(O)c1O`, the IC50 was determined as 10 µM.

Regarding `NC[C@H](CCCCNC(=O)c1cccc(O)c1O)NC(=O)c1c(O)cccc1F`, the IC50 stood at 9.3 µM.

For the molecule `NC[C@H](CCCCNC(=O)c1c(O)cccc1F)NC(=O)c1cccc(O)c1O`, the IC50 was more than 10 µM.

Regarding `O=C(NCCCC[C@H]1CN=C(c2cccc(O)c2O)N1)c1ccccc1O`, the IC50 came to 2.2 µM.

Take `O=C(NCCCC[C@H]1CN=C(c2cccc(O)c2O)N1)c1cccc(O)c1O`: the IC50 came out at 0.9 µM.

Regarding `NC[C@H](CCCCNC(=O)c1ccccc1O)NC(=O)c1ccccc1O`, the IC50 is more than 10 µM.

As for `O=C(NCCCC[C@H]1CN=C(c2cccc(O)c2O)N1)c1c(O)cccc1F`, the IC50 worked out at 1.1 µM.

For `NC[C@H](CCCCNC(=O)c1cccc(O)c1O)NC(=O)c1cccc(O)c1O`, the IC50 amounted to 1.4 µM.

With `O=C(NCCCC[C@@H](CO)NC(=O)c1cccc(O)c1O)c1cccc(O)c1O`, the IC50 turned out to be 1.9 µM.

In the case of `O=C(NCCCC[C@H]1CN=C(c2c(O)cccc2F)N1)c1cccc(O)c1O`, the half-inhibitory concentration (IC50) was 2.2 µM.

Turning to `O=C(NCCCC[C@H]1CN=C(c2ccccc2O)N1)c1ccccc1O`, the IC50 is more than 10 µM.

A further experiment addresses T2, Polyunsaturated fatty acid 5-lipoxygenase (Homo sapiens) (UniProt P09917).
T2 sequence (whole entry): T1 sequence (P09917 whole entry)
Description: Inhibition of recombinant human 5-lipoxygenase at <10 uM using arachidonic acid as substrate preincubated for 10 mins followed by susbtrate addition and measured after 10 mins by reverse phase HPLC method.
As to `NC[C@H](CCCCNC(=O)c1c(O)cccc1F)NC(=O)c1cccc(O)c1O`, the inhibition entry was “inactive”.

Regarding `NC[C@H](CCCCNC(=O)c1ccccc1O)NC(=O)c1ccccc1O`, the inhibition entry is “inactive”.

Broadly, the IC50 is the concentration at which inhibition is half-maximal.
